Test results from patent US11724998B2, “PXR agonists and uses thereof for gut barrier dysfunction treatment and prevention” (Albert Einstein College of Medicine, priority 2017, dated 2023).
“And” between values parts separate entries of the source, which are not always exact repeats. Equal values may be shown once. Read-outs that look alike come from different tables or passages of the source.

Key:
PXR [1] = biological target: T1, PXR (Homo sapiens, UniProt O75469); experiment: PXR activation, HepG2 reporter assay; assay type: cell-based; design: host or cells: HepG2
T1 sequence (O75469 1-434): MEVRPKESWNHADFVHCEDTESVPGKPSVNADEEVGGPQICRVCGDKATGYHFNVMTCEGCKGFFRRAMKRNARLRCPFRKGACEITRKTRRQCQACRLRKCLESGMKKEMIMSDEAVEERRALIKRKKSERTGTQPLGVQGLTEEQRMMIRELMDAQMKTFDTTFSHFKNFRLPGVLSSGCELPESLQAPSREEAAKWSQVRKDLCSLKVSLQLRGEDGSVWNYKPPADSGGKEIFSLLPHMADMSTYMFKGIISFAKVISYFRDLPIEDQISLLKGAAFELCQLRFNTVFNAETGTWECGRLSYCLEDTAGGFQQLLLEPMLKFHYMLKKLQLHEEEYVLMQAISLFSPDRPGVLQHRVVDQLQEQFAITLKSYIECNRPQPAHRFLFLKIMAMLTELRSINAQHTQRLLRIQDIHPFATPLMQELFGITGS
From the text: (§1) Two molecules that were readily available (Ryan Scientific: FKK999 & BAS451) were purchased and tested in vitro for PXR activation using a HepG2 reporter assay. […] […]. […] In general, reporter cell lines are efficient ways to screen for PXR ligands (72). In the LS180 intestinal cell line, the PXR activation assay involves a transient transfection system using a specific PXR plasmid and reporter plasmid (CVmax % 11.2+2; CVmid % 10.8+0.1.4; Signal Window 6.2+1.1; Z′ factor 0.51+0.005).

AhR target gene (CYP1A1) = assay type: cell-based, human
From the text: (§2) FIG. 2A-2F. […] Histogram, mean±SD.
FIG. 7A-7B. Effects of FKK compounds on CYP3A4, MDR1 and CYP1A1 gene expression in LS180 cells. (A) mRNA expression. (B) mRNA expression in wt-PXR transfected cells.

RXR = RXR ligand displacement (radiolabeled 9-cis-retinoic acid); assay type: binding; details: displacement of radiolabeled 9-cis-retinoic acid
Description: (§3) FIG. 6A-6E. Activation and inhibition studies with different FKK compounds. (A) PXR activation, LS180 cells (upper), and PXR inhibition, LS180 cells, co-incubation with RIF (lower). (B) AhR activation, AZ-AHR cells (upper), and AhR inhibition, AZ-AHR cells, co-incubation with TCDD (lower). (C) GR activation, AZ-GR cells (upper), and VDR activation, IZ-VDRE cells (lower). (D) TR activation, PZ-GR cells (upper), and AR activation, AIZ-AR cells (lower). (E) Displacement of radiolabeled 9-cis-retinoic acid (RA) by FKK compounds.
(§4) All the synthesized compounds and intermediates were tested for their potential to activate PXR and/or AhR via luciferase assays. The PXR activation assays were performed by co-transfecting full-length expressing human PXR plasmid (91) and p3A4 luciferase reporter (92) in LS180 or Caco-2 cells. AhR activation conducted using stably co-transfected HepG2 reporter cells as previously described (93). […] With the exception of FKK6, there was no significant inhibition of TCDD-induced AhR activation. […] Independent verification of AhR activity of randomly selected compounds—FKK 5, 6 and 9—was performed in a separate laboratory (GHP). Nuclear receptor selectivity was assessed for FKK compounds for GR, ADR, TR and AR using cell-based luciferase assays previously described (93-102). […]

[2] = system: PXR target genes (CYP3A4, MDR1)
[3] = system: AhR target genes (CYP1A1 and CYP1A2); assay type: cell-based, human
From the text: as §2

[4] = system: AhR target genes (CYP1A1 and CYP1A2); experiment: AhR target gene mRNA expression in HepaRG cells (control, AhR-KO)
AhR [5] = biological target: T2, AhR (Homo sapiens, UniProt P35869); experiment: AhR activation, AZ-AHR (stably co-transfected HepG2) reporter cells; assay type: cell-based; design: endogenous in cells; host or cells: AZ-AHR (HepG2); details: to a much lesser extent than FKK 2 and 9; FIG. 6B
T2 sequence (P35869 11-848): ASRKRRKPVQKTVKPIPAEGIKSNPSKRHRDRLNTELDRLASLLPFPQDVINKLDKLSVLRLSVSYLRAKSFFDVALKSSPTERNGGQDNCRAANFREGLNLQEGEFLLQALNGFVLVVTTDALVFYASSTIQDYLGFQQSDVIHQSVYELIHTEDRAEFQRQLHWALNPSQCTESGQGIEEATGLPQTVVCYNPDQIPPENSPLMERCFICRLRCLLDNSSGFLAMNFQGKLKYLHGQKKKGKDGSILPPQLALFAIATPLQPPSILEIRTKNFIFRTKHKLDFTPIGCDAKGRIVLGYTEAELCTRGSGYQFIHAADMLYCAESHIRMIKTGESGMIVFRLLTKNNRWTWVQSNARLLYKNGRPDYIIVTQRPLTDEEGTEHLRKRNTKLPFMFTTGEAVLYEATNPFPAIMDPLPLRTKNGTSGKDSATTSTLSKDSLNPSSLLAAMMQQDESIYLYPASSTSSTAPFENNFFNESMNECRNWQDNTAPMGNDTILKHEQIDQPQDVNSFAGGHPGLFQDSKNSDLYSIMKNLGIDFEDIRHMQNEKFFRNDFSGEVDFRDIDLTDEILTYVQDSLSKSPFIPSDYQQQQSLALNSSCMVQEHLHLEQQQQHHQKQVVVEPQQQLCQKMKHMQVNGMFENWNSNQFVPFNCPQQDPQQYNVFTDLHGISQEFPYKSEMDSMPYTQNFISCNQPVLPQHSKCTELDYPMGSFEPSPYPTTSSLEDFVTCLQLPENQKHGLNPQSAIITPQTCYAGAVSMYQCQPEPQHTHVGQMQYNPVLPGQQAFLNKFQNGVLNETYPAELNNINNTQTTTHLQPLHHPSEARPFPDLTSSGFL
Description: as §3
(§5) All the synthesized compounds and intermediates were tested for their potential to activate PXR and/or AhR via luciferase assays. The PXR activation assays were performed by co-transfecting full-length expressing human PXR plasmid (91) and p3A4 luciferase reporter (92) in LS180 or Caco-2 cells. AhR activation conducted using stably co-transfected HepG2 reporter cells as previously described (93). […] With the exception of FKK6, there was no significant inhibition of TCDD-induced AhR activation. […] Independent verification of AhR activity of randomly selected compounds—FKK 5, 6 and 9—was performed in a separate laboratory (GHP). Nuclear receptor selectivity was assessed for FKK compounds for GR, ADR, TR and AR using cell-based luciferase assays previously described (93-102). There was no observed biologically significant (>2-fold) induction of nuclear receptor activity (FIG. 6C). RXR ligand displacement is only significant for FKK1 and FKK8 (FIG. 6D).

468 kinases = experiment: Kinase profiling, scanMAX (KINOMEscan) panel; assay type: binding; details: 10 μM; for Number of Hits: 403 non-mutant kinases
Description: The kinase inhibition assays were conducted by DiscoverX on a platform assay by Ambit BioSciences as described previously (112, 113). FKK6 was screened at a single concentration of 10 μM in duplicate. The scanMAXSM assay panel measures 468 kinases (WorldWideWeb.discoverx.com/services/drug-discovery-development-services/kinase-profiling/kinomescan/scanmax). The assays measures a compound's ability to inhibit binding of a canonical ligand substrate, with 0% activity of control corresponding to full inhibition and 100% activity of control to no inhibition. […] Three different activity cut-offs were analyzed—S(35) or % activity of control <35; S(10) or % activity of control <10; and S(1) or % activity of control <1. To illustrate effect or lack of effect, an image of the entire family of kinases tested were grouped by families and S(35). The TREEspot Kinase dendrogram image was generated using TREEspot™ Software Tool and reprinted with permission from KINOMEscan®, a division of DiscoveRx Corporation, © DISCOVERX CORPORATION 2010.

[6] = system: PXR target genes (CYP3A4, MDR1); details: human, 24 h, 10 μM
[7] = system: PXR occupancy of the target promoters; experiment: Chromatin immunoprecipitation assay (ChIP); assay type: cell-based; details: semi-quantitative PCR
Description: These assays were performed as previously published (27).

AhR [8] = biological target: T2, AhR; experiment: AhR inhibition, AZ-AHR cells, co-incubation with TCDD; assay type: cell-based; design: endogenous in cells; host or cells: AZ-AHR (HepG2); details: read-out: inhibition of maximal induction by TCDD
Description: as §3, §4

[9] = system: PXR target genes (CYP3A4, MDR1); experiment: PXR target gene mRNA expression in plated human hepatocytes; details: 10 μM, 24 h, FIG. 2
PXR [10] = biological target: T1, PXR; experiment: Isothermic titration calorimetry (ITC); assay type: binding; details: FIG. 11
PXR [11] = biological target: T1, PXR; experiment: PXR activation (transactivation) luciferase assay in LS180 cells; assay type: cell-based; design: co-transfecting full-length expressing human PXR plasmid (91) and p3A4 luciferase reporter (92) in LS180 or Caco-2 cells; expressed in transfected cells; host or cells: LS180
Description: as §3, §1, §5

AhR [12] = biological target: T2, AhR; experiment: AhR activation by IPA (assay not described); assay type: cell-based
From the text: IPA/Indoles can have weak (˜2 fold) but important effects on the activation of other nuclear receptors (e.g., CAR, LXR) (33). […] Some receptors, specifically CAR and LXR, can act to induce liver steatosis (79, 83-86) and hepatocarcinogenesis (CAR) (80, 84, 87-89) and thus, avoiding excessive activation of these nuclear receptors in the context of PXR activation would be important. […] CDK5 (along with CDK2) are important kinases that phosphorylate and inhibit PXR activation (90).

Q: For Cc1[nH]c2ccccc2c1C(c1ccccc1)c1c(C)[nH]c2ccccc12 [BAS451], which EC50 (PXR [1]) is on record?
A: > 50 µM

Q: O=S(=O)(c1ccccc1)n1c(C(O)c2ccncc2)cc2ccccc21 (stereo not shown) [FKK1] was tested. Which “CYP1A1 mRNA expression” value (AhR target gene (CYP1A1)) did it give?
A: attenuated effects

Q: What about the “CYP1A1 mRNA induction” value (AhR target gene (CYP1A1)) of the same molecule?
A: attenuated effects

Q: And the RXR ligand displacement (RXR)?
A: significant

Q: And the “CYP3A4 mRNA expression” value [2]?
A: expression is reduced

Q: For OC(c1ccncc1)(c1cc2ccccc2[nH]1)c1cc2ccccc2[nH]1 [FKK2], which “induction of CYP1A1 and CYP1A2” value ([3]; human, hepatocytes) is on record?
A: > 100 fold

Q: And the “induction of CYP1A1 and CYP1A2” value [4]?
A: completely diminished

Q: For CC#CC(O)(c1ccncc1)c1cc2ccccc2n1S(=O)(=O)c1ccccc1 (stereo not shown) [FKK3], which AhR activation profile (AhR [5]) is on record?
A: variable degrees of dose-dependent AhR activation

Q: CC#CC(O)(c1ccncc1)c1cc2ccccc2n1COCC (stereo not shown) [FKK4] was tested. Which AhR activation profile (AhR [5]) did it give?
A: variable degrees of dose-dependent AhR activation

Q: Which results are given for C#CCC(O)(c1ccncc1)c1cc2ccccc2n1S(=O)(=O)c1ccccc1 (stereo not shown) [FKK6]?
A: S(1-35)-scores (468 kinases; duplicate): 0; inhibitory effects on kinases (468 kinases; 468 kinases): lack of inhibitory effects of FKK6 on any kinase; Number of Hits (468 kinases; S(1), % activity of control <1): 0; Number of Hits (468 kinases; S(10), % activity of control <10): 0; Number of Hits (468 kinases; S(35), % activity of control <35): 0; CYP3A4 induction [6]: ~10 fold; MDR1 induction [6]: > 6 fold; PXR occupancy of the target promoters [7]: efficiently induces PXR occupancy; inhibition at 10 µM (AhR [8]): ~25%; CYP3A4 induction [9]: ~2.6 fold; MDR1 induction [9]: ~1.5 fold; binding to human PXR (PXR [10]): efficient and direct binding; EC50 (PXR [11]): 0.88 µM; Emax (PXR [11]; read-out: Emax/Emax[rifampicin, positive control]): 117%

Q: With O=S(=O)(c1ccccc1)n1c(C(O)(Cc2cc3ccccc3[nH]2)c2ccncc2)cc2ccccc21 (stereo not shown) [FKK7] as the molecule, how does the AhR activation profile (AhR [5]) read?
A: variable degrees of dose-dependent AhR activation

Q: CCOCn1c(C(O)(Cc2cc3ccccc3[nH]2)c2ccncc2)cc2ccccc21 (stereo not shown) [FKK9] was tested. Which “induction of CYP1A1 and CYP1A2” value ([3]; human, hepatocytes) did it give?
A: > 100 fold

Q: And the “induction of CYP1A1 and CYP1A2” value [4]?
A: completely diminished

Q: Which AhR activation profile (AhR [5]) does the source give for OC(Cc1cc2ccccc2[nH]1)(c1ccncc1)c1cc2ccccc2[nH]1 (stereo not shown) [FKK10] here?
A: variable degrees of dose-dependent AhR activation

Q: Which “CYP1A1 mRNA expression” value (AhR target gene (CYP1A1)) does the source give for Cc1[nH]c2ccccc2c1C(c1c(C)[nH]c2ccccc12)c1c(C)[nH]c2ccccc12 [FKK999, reference compound] here?
A: attenuated effects

Q: What about the “CYP1A1 mRNA induction” value (AhR target gene (CYP1A1)) of the same molecule?
A: attenuated effects

Q: And the AhR activation profile (AhR [5])?
A: variable degrees of dose-dependent AhR activation

Q: What about the EC50 (PXR [1]; HepG2 reporter assay, read-out: EC50, PXR activation) of the same molecule?
A: 5 µM

Q: What about the “CYP3A4 mRNA expression” value [2] of the same molecule?
A: expression is reduced

Q: What about the “CYP3A4 mRNA induction” value ([2]; human) of the same molecule?
A: > 2 fold

Q: Which AhR activation (AhR [12]) does the source give for O=C(O)CCc1c[nH]c2ccccc12 [IPA, indole-3-propionic acid, reference compound] here?
A: does not activate AhR

Q: How did the “CYP1A1 mRNA induction” value (AhR target gene (CYP1A1); PXR transfected LS180 cells, FIG. 7B) turn out when Clc1cc2c(cc1Cl)Oc1cc(Cl)c(Cl)cc1O2 [TCDD] was run?
A: 1299.1 fold

Q: And the “CYP1A1 mRNA expression” value (AhR target gene (CYP1A1); un-transfected LS180 cells, FIG. 7A)?
A: 2347 fold and < 3000 fold

Q: What about the “induction of CYP1A1 and CYP1A2” value ([3]; primary human hepatocytes, FKK2 and FKK9 in 1 of 4 hepatocytes) of the same molecule?
A: > 5000 fold
